The record followed here is publication PMC12142043, “Cell-based high-content approach for SARS-CoV-2 neutralization identifies unique monoclonal antibodies and PI3K pathway inhibitors” (Frontiers in Cell and Developmental Biology, 2025).

Each structure is given as a SMILES string.

For this assay, the system named is SARS-CoV-2 (USA-WA1/2020) in Calu-3 cells. The class given is cell-based. Particulars: Calu-3, 48 h; for dsRNA signal, AU High: high dose (10 µM); for dsRNA signal, AU Low: low dose (100 nM).

As to `CCCNC(=O)Nc1ccc(Oc2ncnc3cc(OC)c(OC)cc23)cc1Cl` [KRN 633], the “dsRNA signal, AU High” value came out at 55097.1 AU and the “dsRNA signal, AU Low” value was 35164.2 AU.

Take `CC(C)(C)c1cc(NC(=O)Nc2ccc(-c3cn4c(n3)sc3cc(OCCN5CCOCC5)ccc34)cc2)no1` [Quizartinib (AC220)]: the “dsRNA signal, AU High” value is given as 4499.9 AU and the “dsRNA signal, AU Low” value was 17036.5 AU.

For the compound `O=C1NC(=O)/C(=C/c2ccc3nccc(-c4ccncc4)c3c2)S1` [GSK1059615], the “dsRNA signal, AU High” value was 832.8 AU and the “dsRNA signal, AU Low” value was determined as 16639.6 AU.

In the case of `C[C@@H](Oc1ccc2[nH]nc(/C=C/c3cnn(CCO)c3)c2c1)c1c(Cl)cncc1Cl` [LY2874455], the “dsRNA signal, AU High” value was found to be 11432.5 AU and the “dsRNA signal, AU Low” value is reported as 3320.6 AU.

Consider `O=C(Nc1cc(C(F)(F)F)ccc1N1CCCCC1)c1ccncc1` [SRPIN340], for which the “dsRNA signal, AU High” value turned out to be 38969.9 AU and the “dsRNA signal, AU Low” value was found to be 6071.8 AU.

For `CS(=O)(=O)N1CCN(Cc2cc3nc(-c4cccc5[nH]ncc45)nc(N4CCOCC4)c3s2)CC1` [GDC-0941], the “dsRNA signal, AU High” value is 590.8 AU and the “dsRNA signal, AU Low” value was determined as 57346.3 AU.

In the case of `N#CC(c1ccnc(NCCc2cccnc2)n1)c1nc2ccccc2s1` (stereo not shown) [AS601245], the “dsRNA signal, AU High” value was found to be 18398.2 AU and the “dsRNA signal, AU Low” value is 6237.2 AU.

In the case of `COc1ccc(/C=C(\C#N)c2cccnc2)cc1OC` [RG 13022], the “dsRNA signal, AU High” value was found to be 36154.5 AU and the “dsRNA signal, AU Low” value is 2414.3 AU.

`CN(C)C/C=C/C(=O)Nc1cccc(C(=O)Nc2ccc(Nc3nccc(-c4cccnc4)n3)cc2)c1` [JNK-IN-7]: the “dsRNA signal, AU High” value is recorded as 66910.1 AU and the “dsRNA signal, AU Low” value was 45982.8 AU.

For the compound `CC(C)C[C@H](N)C(=O)O` [L-Leucine], the “dsRNA signal, AU High” value is given as 3716.4 AU and the “dsRNA signal, AU Low” value stood at 18120.1 AU.

As for `CS(=O)(=O)N1CCC(NC(=O)c2[nH]ncc2NC(=O)c2c(Cl)cccc2Cl)CC1` [NVP-LCQ195], the “dsRNA signal, AU High” value is reported as 6040.0 AU and the “dsRNA signal, AU Low” value came out at 35350.1 AU.

Consider `CN1CCN(c2nc(C3=C(c4c[nH]c5ccccc45)C(=O)NC3=O)c3ccccc3n2)CC1` [Sotrastaurin (AEB071)], for which the “dsRNA signal, AU High” value was 6965.2 AU and the “dsRNA signal, AU Low” value came out at 40818.2 AU.

`COc1cc2ncnc(Nc3cccc(Br)c3)c2cc1OC.Cl` [PD153035 hydrochloride]: the “dsRNA signal, AU High” value turned out to be 1669.4 AU and the “dsRNA signal, AU Low” value is listed as 28866.3 AU.

In the case of `CN1CC[C@H](c2c(O)cc(O)c3c(=O)cc(-c4ccccc4Cl)oc23)[C@H](O)C1` [Flavopiridol], the “dsRNA signal, AU High” value is reported as 411.3 AU and the “dsRNA signal, AU Low” value turned out to be 2633.8 AU.

For `C[C@@H]1C(=O)O[C@H](C)[C@H]1C[C@@H](O)[C@](C)(O)[C@H]1CC[C@@]2(O)C3=CC(=O)[C@@H]4C[C@@H](O)[C@@H](O)C[C@]4(C)[C@H]3CC[C@]12C` [Cyasterone], the “dsRNA signal, AU High” value was found to be 81.6 AU and the “dsRNA signal, AU Low” value is recorded as 11248.2 AU.

As to `O=C(O)CCC(=O)Nc1ccc(Br)cn1` [Bikinin], the “dsRNA signal, AU High” value stood at 39833.6 AU and the “dsRNA signal, AU Low” value is listed as 44813.6 AU.

As to `Nc1cccc(S(=O)(=O)N2CCCN(S(=O)(=O)c3ccc4c(c3)OCCO4)CC2)c1` [DASA-58], the “dsRNA signal, AU High” value turned out to be 7492.3 AU and the “dsRNA signal, AU Low” value turned out to be 8577.3 AU.

With `O=c1c(O)c(-c2ccccc2)oc2cc(O)cc(O)c12` [Galangin;3,5,7-Trihydroxyflavone], the “dsRNA signal, AU High” value was found to be 16189.5 AU and the “dsRNA signal, AU Low” value is 46015.9 AU.

`CCN1CCN(Cc2ccc(Nc3ncc(F)c(-c4cc(F)c5nc(C)n(C(C)C)c5c4)n3)nc2)CC1` [LY2835219 free base]: the “dsRNA signal, AU High” value turned out to be 59180.8 AU and the “dsRNA signal, AU Low” value is on record as 26611.9 AU.

Regarding `OCCn1cc(-c2ccc3c(c2)CC/C3=N\O)c(-c2ccncc2)n1` [GDC-0879], the “dsRNA signal, AU High” value was determined as 7041.8 AU and the “dsRNA signal, AU Low” value is 38492.2 AU.
